Each block holds one compound with its values, some of them ahead of it.
Legend:
[1] = cited from earlier work
[2] = bilateral intrastriatal infusion, female rats; cited from earlier work
[3] = Antagonism of otenzepad-induced diarrhea in mice by solifenacin; assay type: in vivo, Male Swiss mice; conditions: solifenacin 2 to 40 mg/kg given 30 min before otenzepad
Protocol: Male Swiss mice (4-6 weeks old), N=10 per treatment group were used. Animals were pretreated with solifenacin (a representative peripheral muscarinic receptor antagonist) or vehicle; 30 minutes later animals were treated with otenzepad at a dose that caused diarrhea (as determined in Experiment 1). The dose of solifenacin ordinarily ranged from 2 to 40 mg/kg. Mice were placed individually in cages without any bedding materials. During the experiment the number of fecal pellets was counted at different time-points as outlined below:
(§1) T−1 h to T0: counting of the accumulated fecal pellets excreted.
T0: administration of solifenacin.
T30 min: administration of vehicle or otenzepad.
T 30 min to T 2.5 h: counting of accumulated fecal pellets excreted.
T+2.5 h to T+4.5 h: counting of accumulated fecal pellets excreted.
(§2) The total number of fecal pellets for each mouse was counted over time. An analysis of variance (ANOVA) was performed on the results. Fisher's Protected Least Significant Difference was used for pairwise comparisons. The p value≤0.05 were considered significant. Grubbs' test (http//www at graphpad.com/quickcalcs/Grubbs.cfm) was used to detect outliers for each parameter in each experimental group.

[4] = T-maze continuous alternation task (T-CAT) with solifenacin and otenzepad; assay type: in vivo, Male Swiss mice
From the text: Evaluation of Cognition with Solifenacin and Otenzepad in the T-Maze Alternation Task in Mice The T-maze continuous alternation task (T-CAT) is useful as model for studying compounds with cognitive enhancing properties. The T-maze consists of 2 choice arms and 1 start arm mounted to a square centre. Manual doors are provided to close specific arms during the force choice alternation task. Male Swiss mice (4-6 weeks old), N=10 per treatment group were used, and were pre-treated with: • Solifenacin at the dose that blocked fecal pellet excretion in Experiment 2 of Example 1. […] Mice were randomly assigned to one of the different experimental treatment groups. Each animal was identified by its group name, cage number, series (day) of experiment, and number (1 to 10) written with permanent ink on the tail. The T-maze apparatus is made of gray Plexiglas with a main stem (55 cm long×10 cm wide×20 cm high) and two arms (30 cm long×10 cm wide×20 cm high) positioned at 90 degree angle relative to the main stem. […] The percentage of alternation over the 14 free-choice trials was determined for each mouse and was used as an index of working memory performance. […] The drug-induced improvement of memory was calculated by setting the respective response of the saline/vehicle as 100% and that of the test group as 0% reversion. […]

[5] = in vivo; cited from earlier work
[6] = Dose-response to otenzepad in a mouse model of diarrhea (fecal pellet count); assay type: in vivo, Male Swiss mice; conditions: increasing doses of otenzepad, T0 to T+4 h
From the text: Male Swiss mice (4-6 weeks old), N=10 per treatment group were used, and treated with either vehicle (vehicle group) or increasing doses of otenzepad, a representative M2-antagonist. Mice were randomly assigned to one of two experimental groups (vehicle; or increasing doses of otenzepad). Each animal was identified by its group name, cage number, series (day) of experiment, and number (1 to 10) written with permanent ink on the tail. Mice were placed individually in cages without any bedding materials. During the experiment the number of fecal pellets was counted at different time-points, starting one hour before the time of the administration of the test compound (T0), as outlined below:
as §1
T0: administration of the test compound.
T0 to T+2 h: counting of the accumulated fecal pellets excreted.
T+2 h to T+4 h: counting of the accumulated fecal pellets excreted.
as §2, with “comparisons;” for “comparisons. The”, “values≤0.05” for “value≤0.05”, “(http://www.graphpad.com/quickcalcs/Grubbsl.cfm)” for “(http//www at graphpad.com/quickcalcs/Grubbs.cfm)”

[7] = cited from earlier work; remark: listed apart in the source
[8] = clinical study; cited from earlier work
[9] = cited from earlier work; remark: listed apart in the source
[10] = transdermal, rats, [14C] label; cited from earlier work
[11] = absorbed amount; cited from earlier work
[12] = in vivo; cited from earlier work; remark: listed apart in the source
[13] = aged memory impaired rats; cited from earlier work
[14] = young animals; cited from earlier work
[15] = traumatic brain-injured rats; cited from earlier work

Structure (SMILES): COc1ccc([S+]([O-])c2ccc(C(C#N)N3CCN(C4CCCCC4)CC3)cc2)cc1 (stereo not drawn) [SCH 57790, 4-cyclohexyl-alpha-[4[[4-methoxyphenyl]sulphinyl]-phenyl]-1-piperazineacetonitrile]
brain acetylcholine release ([1]; in vivo): dose-related increase | cognitive performance ([1]; rodents and nonhuman primates): enhances cognitive performance

Structure (SMILES): COc1ccccc1CNCCCCCCNCCCCCCCCNCCCCCCNCc1ccccc1OC [methoctramine, N,N′-bis[6-[(2-methoxybenzyl)amino]hexyl]-1,8-octanediamine]
procedural memory performance [2]: improves procedural memory performance

Structure (SMILES): O=C(O[C@H]1CN2CCC1CC2)N1CCc2ccccc2[C@@H]1c1ccccc1 [solifenacin, (1S)-(3R)-1-azabicyclo[2.2.2]oct-3-yl 3,4-dihydro-1-phenyl-2(1H)-iso-quinolinecarboxylate]
antagonism of otenzepad-induced diarrhea (fecal pellets) [3]: dose-dependently antagonized the diarrhea | effect of solifenacin on cognitive response to otenzepad (percentage of alternation) ([4]; solifenacin pre-treatment 30 min before otenzepad): did not affect cognitive response to otenzepad

Structure (SMILES): Cc1cccc(C(=O)N2CCC(N3CCC(C4(c5ccc(S(=O)(=O)c6cccc(Cl)c6)cc5)OCCO4)CC3)CC2)c1N [SCH-217443, 1′-(2-amino-3-methylbenzoyl)-4-[[[(3-chlorophenyl)sulfonyl]phenyl]ethylenedioxymethyl]-1,4′-bipiperidine]
activity in a rat model of cognition [5]: shows activity

diarrhea (number of fecal pellets) [6]: dose-dependently causes diarrhea
Structure (SMILES): CCN(CC)CC1CCCCN1CC(=O)N1c2ccccc2C(=O)Nc2cccnc21 (racemic) [otenzepad, (±)11-[[2-[(diethylamino)methyl]-1-piperidinyl]acetyl]-5,11-dihydro-6H-pyrido[2,3-b][1,4]benzodiazepin-6-one]
cognition (percentage of alternation, working memory) ([4]; two doses of otenzepad, in the presence of solifenacin): improves cognition in a dose-dependent manner | subjects with mild and tolerable adverse events (palpitations, dry mouth, headache) ([7]; 270 to 810 mg/day): about 20% | muscarinic adverse effects ([7]; single oral doses of 120, 240 and 480 mg): does not induce manifest muscarinic adverse effects

Structure (SMILES): CCn1nnc(C2=CCCN(C)C2)n1 [Lu 25-109, 5-(2-ethyl-2H-tetrazol-5-yl)-1-methyl-1,2,3,6-tetrahydropyridine]
fixed-dose Maximum Tolerated Dose [8]: 150 mg t.i.d. | side effects ([9]; anorexia, nausea, diarrhea, increased sweating, increased with dose): prominent cholinergic side effects | primary and secondary variables versus placebo (antidementia efficacy) ([9]; three doses, 6 months, 496 patients with probable AD): no significant differences

Structure (SMILES): CCN(CC)CC#CCOC(=O)C(O)(c1ccccc1)C1CCCCC1 (centres unmarked) [oxybutynin, 4-diethylaminobut-2-ynyl 2-cyclohexyl-2-hydroxy-2-phenylethanoate]
brain penetration [10]: presence of radiolabel in the brain

Structure (SMILES): O=C(O[C@H]1C[C@H]2CC[C@@H](C1)[N+]21CCCC1)C(O)(c1ccccc1)c1ccccc1 [trospium chloride, azoniaspiro[33-benziloyloxy-(1α,5α)-nortropane-8,1′-pyrrolidine] (trospium) chloride]
average plasma half-life [11]: about 18 hours

Structure (SMILES): CCCS(=O)(=O)N1CCC(C)(N2CCN([C@@H](C)c3ccc(S(=O)(=O)c4ccc5c(c4)OCO5)cc3)[C@H](C)C2)CC1 [SCH 72788, 4-[4-[1(S)-[4-[(1,3-benzodioxol-5-yl)sulfonyl]phenyl]ethyl]-3(R)-methyl-1-piperazinyl]-4-methyl-1-(propylsulfonyl)piperidine]
ACh release [12]: increases ACh release | activity in a rodent model of cognition [12]: active

Structure (SMILES): CCCC(C)(C)C(=O)N(CC)CCCC1CCN(CC(=O)N2c3ccc(Cl)cc3C(=O)Nc3cccnc32)CC1 [BIBN-99, 5,11-dihydro-8-chloro-11-[[4-[3-[(2,2-dimethyl-1-oxopentyl)ethylamino]propyl]-1-piperidinyl]acetyl]-6H-pyrido[2,3-b][1,4]benzodiazepin-6-one]
impaired ACh release and cognitive deficits [13]: reverses, in a dose-dependent manner | scopolamine-induced amnesia [14]: improves scopolamine-induced amnesia | cognitive deficits [15]: attenuate cognitive deficits

— patent US20180360845A1, “MUSCARINIC COMBINATION OF A SELECTIVE M2-ANTAGONIST AND A PERIPHERAL NON-SELECTIVE ANTAGONIST FOR TREATING HYPOCHOLINERGIC DISORDERS” (CHASE PHARMACEUTICALS CORPORATION, priority 2015, published 2018)
